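In this assay, cells in 96-well plates receive the compound at five concentrations for 48 hours. Endpoints are linearly interpolated between the surrounding concentrations. GI50 = concentration required for 50% inhibition of growth. TGI: concentration producing complete growth inhibition.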
Columns and labels:
Experiment in all cases: NCI-60 cell line screen, 48 h
786-0 renal = test system: 786-0 renal
A498 renal = test system: A498 renal
A549 NSCLC = test system: A549 NSCLC
ACHN renal = test system: ACHN renal
BT-549 breast = test system: BT-549 breast
CAKI-1 renal = test system: CAKI-1 renal
CCRF-CEM leukemia = test system: CCRF-CEM leukemia
COLO 205 colon = test system: COLO 205 colon
DU-145 prostate = test system: DU-145 prostate
EKVX NSCLC = test system: EKVX NSCLC
HCT-116 colon = test system: HCT-116 colon
HCT-15 colon = test system: HCT-15 colon
HL-60(TB) leukemia = test system: HL-60(TB) leukemia
HOP-92 NSCLC = test system: HOP-92 NSCLC
HS 578T breast = test system: HS 578T breast
HT29 colon = test system: HT29 colon
IGROV1 ovarian = test system: IGROV1 ovarian
K-562 leukemia = test system: K-562 leukemia
KM12 colon = test system: KM12 colon
LOX IMVI melanoma = test system: LOX IMVI melanoma
M14 melanoma = test system: M14 melanoma
MCF7 breast = test system: MCF7 breast
MDA-MB-231 breast = test system: MDA-MB-231 breast
MDA-MB-435 = test system: MDA-MB-435
MOLT-4 leukemia = test system: MOLT-4 leukemia
NCI-H226 lung = test system: NCI-H226 lung
NCI-H23 lung = test system: NCI-H23 lung
NCI-H460 lung = test system: NCI-H460 lung
NCI-H522 lung = test system: NCI-H522 lung
NCI/ADR-RES ovarian = test system: NCI/ADR-RES ovarian
OVCAR-3 ovarian = test system: OVCAR-3 ovarian
OVCAR-4 ovarian = test system: OVCAR-4 ovarian
OVCAR-5 ovarian = test system: OVCAR-5 ovarian
OVCAR-8 ovarian = test system: OVCAR-8 ovarian
PC-3 prostate = test system: PC-3 prostate
RPMI-8226 leukemia = test system: RPMI-8226 leukemia
RXF 393 renal = test system: RXF 393 renal
SF-268 CNS = test system: SF-268 CNS
SF-295 CNS = test system: SF-295 CNS
SF-539 CNS = test system: SF-539 CNS
SK-MEL-2 melanoma = test system: SK-MEL-2 melanoma
SK-MEL-28 melanoma = test system: SK-MEL-28 melanoma
SK-MEL-5 melanoma = test system: SK-MEL-5 melanoma
SN12C renal = test system: SN12C renal
SNB-19 CNS = test system: SNB-19 CNS
SNB-75 CNS = test system: SNB-75 CNS
SR leukemia = test system: SR leukemia
SW-620 colon = test system: SW-620 colon
TK-10 renal = test system: TK-10 renal
U251 CNS = test system: U251 CNS
UACC-257 melanoma = test system: UACC-257 melanoma
UACC-62 melanoma = test system: UACC-62 melanoma
UO-31 renal = test system: UO-31 renal

Structure (SMILES): O=C(CC1C(=O)NN(c2ccc(Br)cc2)C1=O)c1cc(O)ccc1O (stereo unspecified)
- GI50 (786-0 renal): 22.4 µM
- TGI (786-0 renal): > 50 µM
- GI50 (A498 renal): > 50 µM
- TGI (A498 renal): > 50 µM
- GI50 (A549 NSCLC): > 50 µM
- TGI (A549 NSCLC): > 50 µM
- GI50 (ACHN renal): 14.8 µM
- TGI (ACHN renal): 49.4 µM
- GI50 (BT-549 breast): 13.9 µM
- TGI (BT-549 breast): > 50 µM
- GI50 (CAKI-1 renal): 14.4 µM
- TGI (CAKI-1 renal): 35.7 µM
- GI50 (CCRF-CEM leukemia): > 50 µM
- TGI (CCRF-CEM leukemia): > 50 µM
- GI50 (COLO 205 colon): 23.3 µM
- TGI (COLO 205 colon): > 50 µM
- GI50 (DU-145 prostate): 21.2 µM
- TGI (DU-145 prostate): > 50 µM
- GI50 (EKVX NSCLC): 27.8 µM
- TGI (EKVX NSCLC): > 50 µM
- GI50 (HCT-116 colon): 26.2 µM
- TGI (HCT-116 colon): > 50 µM
- GI50 (HCT-15 colon): 8.5 µM
- TGI (HCT-15 colon): 20 µM
- GI50 (HL-60(TB) leukemia): 23.5 µM
- TGI (HL-60(TB) leukemia): > 50 µM
- GI50 (HOP-92 NSCLC): 11.6 µM
- TGI (HOP-92 NSCLC): > 50 µM
- GI50 (HS 578T breast): 26.2 µM
- TGI (HS 578T breast): > 50 µM
- GI50 (HT29 colon): 22 µM
- TGI (HT29 colon): > 50 µM
- GI50 (IGROV1 ovarian): 40 µM
- TGI (IGROV1 ovarian): > 50 µM
- GI50 (K-562 leukemia): 14.8 µM
- TGI (K-562 leukemia): > 50 µM
- GI50 (KM12 colon): 9.84 µM
- TGI (KM12 colon): 40.6 µM
- GI50 (LOX IMVI melanoma): 8.3 µM
- TGI (LOX IMVI melanoma): 19.5 µM
- GI50 (M14 melanoma): 31.2 µM
- TGI (M14 melanoma): > 50 µM
- GI50 (MCF7 breast): 21.2 µM
- TGI (MCF7 breast): > 50 µM
- GI50 (MDA-MB-231 breast): 8.44 µM
- TGI (MDA-MB-231 breast): 22.4 µM
- GI50 (MDA-MB-435): 7.2 µM
- TGI (MDA-MB-435): 23.1 µM
- GI50 (MOLT-4 leukemia): > 50 µM
- TGI (MOLT-4 leukemia): > 50 µM
- GI50 (NCI-H226 lung): 10.4 µM
- TGI (NCI-H226 lung): 36.9 µM
- GI50 (NCI-H23 lung): 19.8 µM
- TGI (NCI-H23 lung): > 50 µM
- GI50 (NCI-H460 lung): 23 µM
- TGI (NCI-H460 lung): > 50 µM
- GI50 (NCI-H522 lung): 18.5 µM
- TGI (NCI-H522 lung): > 50 µM
- GI50 (NCI/ADR-RES ovarian): 19.6 µM
- TGI (NCI/ADR-RES ovarian): > 50 µM
- GI50 (OVCAR-3 ovarian): 7.41 µM
- TGI (OVCAR-3 ovarian): 21.7 µM
- GI50 (OVCAR-4 ovarian): 30.6 µM
- TGI (OVCAR-4 ovarian): > 50 µM
- GI50 (OVCAR-5 ovarian): 34.7 µM
- TGI (OVCAR-5 ovarian): > 50 µM
- GI50 (OVCAR-8 ovarian): 18.4 µM
- TGI (OVCAR-8 ovarian): > 50 µM
- GI50 (PC-3 prostate): 24.1 µM
- TGI (PC-3 prostate): > 50 µM
- GI50 (RPMI-8226 leukemia): 16.5 µM
- TGI (RPMI-8226 leukemia): > 50 µM
- GI50 (RXF 393 renal): > 50 µM
- TGI (RXF 393 renal): > 50 µM
- GI50 (SF-268 CNS): 29 µM
- TGI (SF-268 CNS): > 50 µM
- GI50 (SF-295 CNS): 11 µM
- TGI (SF-295 CNS): 29.7 µM
- GI50 (SF-539 CNS): 11.3 µM
- TGI (SF-539 CNS): 27.3 µM
- GI50 (SK-MEL-2 melanoma): 36.5 µM
- TGI (SK-MEL-2 melanoma): > 50 µM
- GI50 (SK-MEL-28 melanoma): 28 µM
- TGI (SK-MEL-28 melanoma): > 50 µM
- GI50 (SK-MEL-5 melanoma): 18.6 µM
- TGI (SK-MEL-5 melanoma): > 50 µM
- GI50 (SN12C renal): 13.6 µM
- TGI (SN12C renal): 40.3 µM
- GI50 (SNB-19 CNS): 22.7 µM
- TGI (SNB-19 CNS): > 50 µM
- GI50 (SNB-75 CNS): 24.8 µM
- TGI (SNB-75 CNS): > 50 µM
- GI50 (SR leukemia): > 50 µM
- TGI (SR leukemia): > 50 µM
- GI50 (SW-620 colon): 17.9 µM
- TGI (SW-620 colon): > 50 µM
- GI50 (TK-10 renal): 15.5 µM
- TGI (TK-10 renal): > 50 µM
- GI50 (U251 CNS): 14.2 µM
- TGI (U251 CNS): 36 µM
- GI50 (UACC-257 melanoma): 19.6 µM
- TGI (UACC-257 melanoma): > 50 µM
- GI50 (UACC-62 melanoma): 12 µM
- TGI (UACC-62 melanoma): 27.7 µM
- GI50 (UO-31 renal): 41.2 µM
- TGI (UO-31 renal): > 50 µM

From PubChem BioAssay (NCI)
